Patent US7091238B1, “Thienylhydrazon with digitalis-like properties (positive inotropic effects)” (University of Maryland, priority 1999, dated 2006)
Entries after “also recorded” stand apart in the source; their conditions may differ.

Legend:
tissues and organs = assay: Histopathological study of tissues and organs after daily injection; format: in vivo, rat; conditions: 2 or 10 mg/kg injected daily for more than 14 days
[1] = Toxicity study: body weight after injection; format: in vivo, mice; conditions: vs saline and solvent vehicle controls, 1–15 days of treatment
Experimental: b. Rats were weighed before and after treatment with LASSBio 204. […] Six rats were examined in each group, measurements were made after 1–15 days of treatment. […] Mice were injected with LASSBio-294 and their blood examined for cell changes. Experimental groups received 2 or 10 mg/kg of drug. […] Table 4 lists blood chemistry analysis of mice treated with LASSBio-294. Experimental groups received 2 or 10 mg/kg of drug. Controls were saline and solvent. […] The low values of glucose found could be due to an artifact of the technique, glucose being a byproduct of hemolysis. […] General Method

isolated dog hearts = assay: Intraventricular and aortic pressure in isolated dog hearts under pre-load (Langendorff's method); conditions: compared to control or wash out
From the text: Predictive tests can also be performed on isolated hearts of animals. Testing intraventricular and arterial pressure in isolated dog hearts, under pre-load, is an animal model for human congestive heart disease, as is well known in the art. This is called Langendorff's method. It allows examination of therapeutic strategies to treat congestive heart disease. When dog hearts were so tested, LASSBio-294 treated hearts achieved a 50% increase in intraventricular and aortic pressure compared to control or wash out after treatment. […] These tests predict that the invention has utility as a medicament in the treatment of congestive heart failure (Curtis, M. J., (1998) Cardiovasc. Res. 39, 194–21, incorporated expressly by reference herein).

dogs = assay: Left intraventricular and arterial pressure in intact anesthetized dogs; format: in vivo, dog; conditions: normal cardiac function, no pre-load, 1 mg kg^−1 min^−1 for 13 min
Experimental: FIG. 6. Recording of left intraventricular pressure and arterial pressure in dogs anesthetized and ventilated normally.
FIG. 6 illustrates a test that measured pressure from the hearts of intact dogs during LASSBio-294 application. Recordings were made of left intraventricular pressure and arterial pressure.
Dogs were anesthetized and normally ventilated. Recordings were made before and after application of LASSBio-294, 1 mg kg^−1 min^−1 for 13 min.

[2] = system: neuromuscular transmission; assay: Contractions of gastrocnemius muscle induced by stimulation of the sciatic nerve; format: in vivo; conditions: rat gastrocnemius, vs DMSO vehicle
Experimental: FIG. 30. Records of contractions induced by stimulation of the sciatic nerve of equilibrated rat gastrocnemius muscles and of arterial pressure. In control, contractions were induced by intravenous injection of DMSO ([…]). LASSBio-294 was administered in DMSO. Calibration: Horizontal, 1 cm=24 s; Vertical 2 g=100 mm Hg.
FIG. 31. Records of contractions of rat gastrocnemius muscles induced by stimulation of the sciatic nerve and of arterial pressure. For control, contraction was induced by intravenous injection of […] (0.04 ml). LASSBio-294 was administered in DMSO.

rat thoracic aorta = assay: Relaxation of noradrenaline-precontracted thoracic aortic rings
From the text: Aortic rings: Male wistar rats (300–350 g) were anaesthetized with ether and killed by cervical dislocation. The thoracic aorta was quickly removed, placed in physiological solution, cleaned of fat and connective tissue, and cut into 3-mm rings. In some experiments endothelium was mechanically removed by gently rubbing inverted rings on a cotton surface moistened with physiological solution. The rings were fixed in an organ bath chamber filled with physiological solution (composition (mM): NaCl 122, KCl 5, NaHCO3 15, glucose 11.5, MgCl2 1.25, CaCl2 1.25 and KH2PO4 1.25) aerated with O2/CO2, maintained at 37° C., and left to equilibrate for 60 min during which the physiological solution was changed twice. All experiments were carried out under an initial tension of 20 mN, and the developed active tension was measured isometrically using a Grass Transducer (FT03). Data were acquired and analyzed by Chart 3.4/s software (MacLab, USA). The contraction was induced by 1 μM Noradrenaline (NOR) and when it reached a plateau the relaxant drugs (or solvent—time-matched control) were added. The rings contracted with 1 μM NOR that relaxed 40–50% in response to 1 μM acetylcholine were considered with intact endothelium. Drugs: LASSBio-294 and ODQ were dissolved in 100% dimethyl sulphoxide (DMSO). Noradrenalin, 1-NAME, IBMX, methylene blue, acetylcholine and indomethacin were purchased from SIGMA (USA). All drugs but indomethacin were dissolved in water in the day of the experiment. Indomethacin was dissolved in 5% sodium carbonate. Statistics: Data are presented as mean ±sem. Statistical analysis was performed using the Primer software. Vasodilator responses are expressed in percentage of the maximal contraction induced by 1 μM NOR. Differences were considered significant at p<0.05 (Student's t test).

O=C(NN=Cc1cccs1)c1ccc2c(c1)OCO2 [LASSBio-294, 3,4-methylenedioxybenzoyl-2-thienylhydrazone]
histopathological changes in tissues and organs (tissues and organs): unaffected; also recorded: no pathological changes; also recorded: no significant histopathological changes | body weight [1]: unaffected | body weight ([1]; listed as LASSBio294): no change in weight | increase in intraventricular and aortic pressure (isolated dog hearts): 50% | left intraventricular pressure and arterial pressure (dogs): no change in pressure | effect on neuromuscular junction / transmission [2]: no effect on the neuromuscular junction; also recorded: no effect on neuromuscular transmission; also recorded: unaffected | vasodilator activity (conclusion) (rat thoracic aorta): has vasodilator activity | relaxation of aortic rings with intact endothelium (rat thoracic aorta; 1 μM noradrenaline precontraction, 100 μM): relaxed noradrenaline-precontracted aortic rings; also recorded: relaxed intact aortic rings in a concentration-dependent manner | relaxation after addition of methylene blue (rat thoracic aorta; 30 μM methylene blue added after compound 100 μM): fully reversed | relaxation after pre-treatment with methylene blue (rat thoracic aorta; 30 μM methylene blue added before compound): not able to induce relaxation; also recorded: prevented; also recorded: abolishes | relaxation after 1-NAME treatment (rat thoracic aorta; 1-NAME 100 μM during 30 min): no difference in the relaxation | vasorelaxation in presence of ODQ (rat thoracic aorta; ODQ 10 μM, compound 100 μM, preliminary assays): prevented | relaxation in endothelium-denuded aorta (rat thoracic aorta; endothelium removed): abolished | relaxation after 1-NAME plus indomethacin (rat thoracic aorta; inhibition of both NOS and cycloxigenase pathways): same level of relaxation observed in the presence of only 1-NAME; also recorded: the same as observed in the presence of 1-NAME alone | relaxation compared with acetylcholine and IBMX (rat thoracic aorta; intact rings, 1 μM noradrenaline): more slowly; also recorded: less pronounced
